Measurements as given in PubChem BioAssay AID330 (DTP/NCI, 2004).
Values joined by “and” are separate entries in the source; they are usually repeats but may differ in a detail not shown here. Equal entries are not always repeated. Toxic doses and inconclusive results are not listed. Rule for the calls: active = survival T/C of 150% or more; inactive = T/C below 125% in these data.

Test system: P388 leukemia ip, CD2F1 mice, survival T/C
Experiment: NCI In Vivo Anticancer Drug Screen. Data for tumor model P388 Leukemia (intraperitoneal) in CD2F1 (CDF1) mice
Conditions: endpoint: median survival time, higher = longer survival
How it was run: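 Mice carrying the transplanted tumor received test compound or vehicle. Survival was recorded in each group, and the value is the treated-group measurement divided by that of the vehicle-treated control group.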

[1] = dose: 60.0 mg/kg/injection, schedule: Q01DX005 (ip), vehicle: Klucel (hydroxypropylcellulose) (HPC)
[2] = dose: 50.0 mg/kg/injection, schedule: Q01DX009 (ip), vehicle: saline with Tween-80
[3] = dose: 100.0 mg/kg/injection, schedule: Q01DX009 (ip), vehicle: saline with Tween-80
[4] = dose: 50.0 mg/kg/injection, schedule: Q01DX005 (ip), vehicle: Klucel (hydroxypropylcellulose) (HPC)
[5] = dose: 100.0 mg/kg/injection, schedule: Q01DX005 (ip), vehicle: Klucel (hydroxypropylcellulose) (HPC)
[6] = dose: 200.0 mg/kg/injection, schedule: Q01DX005 (ip), vehicle: Klucel (hydroxypropylcellulose) (HPC)
[7] = dose: 50.0 mg/kg/injection, schedule: Q01DX005 (ip), vehicle: saline with Tween-80
[8] = dose: 100.0 mg/kg/injection, schedule: Q01DX005 (ip), vehicle: saline with Tween-80
[9] = dose: 200.0 mg/kg/injection, schedule: Q01DX005 (ip), vehicle: saline with Tween-80
[10] = dose: 200.0 mg/kg/injection, schedule: Q01DX009 (ip), vehicle: saline with Tween-80
[11] = dose: 25.0 mg/kg/injection, schedule: Q01DX009 (ip), vehicle: Klucel (hydroxypropylcellulose) (HPC)
[12] = dose: 50.0 mg/kg/injection, schedule: Q01DX009 (ip), vehicle: Klucel (hydroxypropylcellulose) (HPC)
[13] = dose: 60.0 mg/kg/injection, schedule: Q01DX005 (ip), vehicle: saline with Tween-80
[14] = dose: 120.0 mg/kg/injection, schedule: Q01DX005 (ip), vehicle: saline with Tween-80
[15] = dose: 240.0 mg/kg/injection, schedule: Q01DX005 (ip), vehicle: saline with Tween-80
[16] = dose: 100.0 mg/kg/injection, schedule: Q01DX009 (ip), vehicle: Klucel (hydroxypropylcellulose) (HPC)
[17] = dose: 200.0 mg/kg/injection, schedule: Q01DX009 (ip), vehicle: Klucel (hydroxypropylcellulose) (HPC)

Measured: T/C

CCOC(=O)C(=C\c1nncn1-c1ccccc1)/C=C(/O)c1ccccc1
inactive: dose: 15.0 mg/kg/injection, schedule: Q01DX005 (ip), vehicle: Klucel (hydroxypropylcellulose) (HPC) 97 % of control | dose: 30.0 mg/kg/injection, schedule: Q01DX005 (ip), vehicle: Klucel (hydroxypropylcellulose) (HPC) 93 % of control | [1] 87 % of control

O=C(N/N=C/c1ccccc1O)C(F)(F)F
inactive: [2] 86 % of control | [3] 86 % of control

CCOc1cc2c(cc1C(C)c1ccc(OCc3ccccc3)cc1)OCO2 (configuration not stated)
inactive: [4] 88 % of control | [5] 96 % of control | [6] 91 % of control

CCN(CC)CCCNCc1cc(-c2ccccc2)nc2cc(Cl)ccc12
inactive: [7] 102 % of control | [8] 100 % of control | [9] 100 % of control

CN=C1NC(=O)C(c2ccccc2)S1 (configuration not stated)
inactive: [7] 99 % of control | [8] 99 % of control

COC(=O)C1=C(C(=O)OC)CC1
inactive: [2] 109 % of control | [3] 109 % of control | [10] 117 % of control

COc1cc([C@@H]2Oc3c(OC)cc4ccc(=O)oc4c3O[C@H]2CO)ccc1O
inactive: dose: 200.0 mg/kg/injection, schedule: Q01DX005 (ip), vehicle: saline + alcohol 87 % of control | dose: 300.0 mg/kg/injection, schedule: Q01DX005 (ip), vehicle: saline + alcohol 94 % of control

C=C1C2CCC3(CCC4C5(C)CCCC4(C=[N+](CCO)C5)C3C2)C1O (configuration not stated)
inactive: [11] 94 % of control

Nc1nc(Sc2ccc([N+](=O)[O-])c3nonc23)c2ncn(C3OC(CO)C(O)C3O)c2n1 (configuration not stated)
inactive: dose: 3.12 mg/kg/injection, schedule: Q01DX009 (ip), vehicle: Klucel (hydroxypropylcellulose) (HPC) 113 % of control | dose: 6.25 mg/kg/injection, schedule: Q01DX009 (ip), vehicle: Klucel (hydroxypropylcellulose) (HPC) 113 % of control | [11] 122 % of control | [12] 102 % of control and 118 % of control

CCCCCCCCc1c(C)nc(N)[nH]c1=O
inactive: [13] 109 % of control | [14] 94 % of control | [15] 88 % of control

C=CCN(CC=C)P1(=O)NCCCO1 (configuration not stated)
inactive: dose: 50.0 mg/kg/injection, schedule: Q01DX005 (ip), vehicle: saline 103 % of control | dose: 100.0 mg/kg/injection, schedule: Q01DX005 (ip), vehicle: saline 102 % of control | dose: 200.0 mg/kg/injection, schedule: Q01DX005 (ip), vehicle: saline 105 % of control

S=C(Nc1ccccc1)NC1SNC(=Nc2ccccc2)N1c1ccccc1 (configuration not stated)
inactive: [7] 106 % of control | [8] 95 % of control | [9] 95 % of control

NC(=S)SCCC(=O)N1CCCC1
inactive: dose: 25.0 mg/kg/injection, schedule: Q01DX005 (ip), vehicle: Klucel (hydroxypropylcellulose) (HPC) 103 % of control | [4] 97 % of control | [5] 99 % of control | [6] 101 % of control

O=C(OCc1ccccc1)C(=O)c1c(O)n(-c2ccccc2)c2ccccc12
inactive: dose: 100.0 mg/kg/injection, schedule: Q04DX002 (ip), vehicle: saline + alcohol 99 % of control | dose: 200.0 mg/kg/injection, schedule: Q04DX002 (ip), vehicle: saline + alcohol 100 % of control | dose: 400.0 mg/kg/injection, schedule: Q04DX002 (ip), vehicle: saline + alcohol 96 % of control

CN(C)Cc1c(O)c2ccc(N(C)C)cc2[nH]c1=O
inactive: [1] 92 % of control | dose: 120.0 mg/kg/injection, schedule: Q01DX005 (ip), vehicle: Klucel (hydroxypropylcellulose) (HPC) 90 % of control | dose: 240.0 mg/kg/injection, schedule: Q01DX005 (ip), vehicle: Klucel (hydroxypropylcellulose) (HPC) 96 % of control

CC1=C(CO)C(=O)OC(C(C)C2CCC3C4CC5OC56C(O)C(N5CC5(C)C)CC(=O)C6(C)C4CCC23C)C1 (configuration not stated)
inactive: dose: 8.75 mg/kg/injection, schedule: Q01DX005 (ip), vehicle: Klucel (hydroxypropylcellulose) (HPC) 108 % of control | dose: 17.5 mg/kg/injection, schedule: Q01DX005 (ip), vehicle: Klucel (hydroxypropylcellulose) (HPC) 99 % of control | dose: 35.0 mg/kg/injection, schedule: Q01DX005 (ip), vehicle: Klucel (hydroxypropylcellulose) (HPC) 99 % of control | dose: 70.0 mg/kg/injection, schedule: Q01DX005 (ip), vehicle: Klucel (hydroxypropylcellulose) (HPC) 108 % of control | dose: 140.0 mg/kg/injection, schedule: Q01DX005 (ip), vehicle: Klucel (hydroxypropylcellulose) (HPC) 105 % of control

c1ccc(OC2CCCCC2N2CCOCC2)cc1 (configuration not stated)
inactive: dose: 50.0 mg/kg/injection, schedule: Q01DX009 (ip), vehicle: suspension in saline 87 % of control | dose: 100.0 mg/kg/injection, schedule: Q01DX009 (ip), vehicle: suspension in saline 87 % of control | dose: 200.0 mg/kg/injection, schedule: Q01DX009 (ip), vehicle: suspension in saline 94 % of control

CCCCCCCC#CC(=O)OC
inactive: [2] 95 % of control | [3] 101 % of control | [10] 101 % of control

Cc1nc(C(=O)O)c(C(=O)O)[nH]1
inactive: dose: 100.0 mg/kg/injection, schedule: Q01DX009 (ip), vehicle: saline sonified 90 % of control | dose: 200.0 mg/kg/injection, schedule: Q01DX009 (ip), vehicle: saline sonified 100 % of control

BrCCCOc1ccccc1Br
inactive: [4] 101 % of control | [5] 97 % of control | [6] 105 % of control

ClC(Cl)(Cl)C(c1ccc(Br)cc1)c1ccc(Br)cc1
inactive: [13] 95 % of control | [14] 94 % of control | [15] 95 % of control

Cc1ccc([N+](=O)[O-])c2ccccc12
inactive: [12] 113 % of control and 97 % of control | [2] 109 % of control | [16] 100 % of control and 98 % of control | [3] 100 % of control | [17] 103 % of control and 120 % of control | [10] 96 % of control | dose: 400.0 mg/kg/injection, schedule: Q01DX009 (ip), vehicle: Klucel (hydroxypropylcellulose) (HPC) 86 % of control and 97 % of control

N#Cc1ccc(N=NN2CCOC2)cc1
inactive: [13] 86 % of control | [14] 100 % of control | [15] 93 % of control

O=[N+]([O-])c1ccc(O)c(/C=N\NS(=O)(=O)c2ccc(F)cc2)c1
inactive: [7] 103 % of control | [8] 93 % of control

O=C(O)C[P+](Cc1ccccc1)(c1ccccc1)c1ccccc1
inactive: [11] 97 % of control | [12] 102 % of control and 113 % of control | [16] 101 % of control and 103 % of control | [17] 95 % of control

COc1cccc(C(=O)c2ccc(OC)cc2C(=O)O)c1
inactive: [4] 95 % of control | [5] 101 % of control | [6] 97 % of control

ClC1=C(Cl)C2(Cl)C3C(c4ccc(I)cc4C4C3C3(Cl)C(Cl)=C(Cl)C4(Cl)C3(Cl)Cl)C1(Cl)C2(Cl)Cl (configuration not stated)
inactive: dose: 50.0 mg/kg/injection, schedule: Q01DX009 (ip), vehicle: saline 105 % of control | dose: 100.0 mg/kg/injection, schedule: Q01DX009 (ip), vehicle: saline 108 % of control | dose: 200.0 mg/kg/injection, schedule: Q01DX009 (ip), vehicle: saline 105 % of control

Cc1cn(C2CC(O)C(C(=O)Nc3ccc(C(=O)CCl)cc3)O2)c(=O)[nH]c1=O (configuration not stated)
inactive: [7] 108 % of control | [8] 114 % of control | [9] 109 % of control

COc1ccc(-n2c(CSc3ccc(Cl)cc3)n[nH]c2=S)cc1
inactive: [13] 104 % of control | [14] 96 % of control | [15] 95 % of control

COC(=O)[C@@H]1N2C(=O)C=NO[C@H]2SC1(C)C
inactive: dose: 60.0 mg/kg/injection, schedule: Q01DX005 (ip), vehicle: saline 95 % of control | dose: 120.0 mg/kg/injection, schedule: Q01DX005 (ip), vehicle: saline 98 % of control | dose: 240.0 mg/kg/injection, schedule: Q01DX005 (ip), vehicle: saline 104 % of control
